Results on 15 compounds are retold here after patent US8642770B2, “Indole derivative” (Takeda Pharmaceutical Company Limited, priority 2010, dated 2014).

Series [1] addresses T1, human MCHR1 (Homo sapiens, UniProt Q99705).
T1 construct: expressed in transfected cells; host or cells: CHO cell clone 57 (membrane fraction)
Description: Human MCH receptor 1 (MCHR1) competitive binding assay, [125I]-MCH(4-19), CHO cell membrane fraction. As to conditions: test compound 0.1 μM, human MCHR1-expressing CHO cell membrane, 25° C., 1 hr, read-out: Binding inhibition rate (0.1 μM). The procedure:
Determination of Human MCH Receptor 1 (MCHR1) Competitive Inhibitory Activity of Test Compound Using Binding Assay
Using human MCHR1(=SLC-1 receptor)-expressing CHO cell clone 57 and rat MCHR1-expressing CHO cell clone 44 described in WO01/82925, MCHR1-expressing CHO cellular membrane fractions were prepared by the following method. In phosphate buffered saline (pH 7.4) supplemented with 5 mM EDTA (ethylenediaminetetraacetic acid) were respectively suspended human and rat MCHR1-expressing CHO cells (1×10^8 cells) and centrifuged. Homogenate buffer (10 mL, 10 mM NaHCO3, 5 mM EDTA, pH 7.5, 0.5 mM PMSF (phenylmethylsulfonyl fluoride), 20 mg/L leupeptin, 4 mg/L E-64, 1 mg/L pepstatin A) was added to the pellets of the cells and, using Polytron Homogenizer, the mixture was homogenated. The supernatant obtained after centrifugation at 400×g for 10 min was further centrifuged at 100,000×g for 1 hr to give precipitate of the membrane fraction. The precipitate were suspended in 2 mL of assay buffer [20 mM Tris-HCl (pH 7.5), 5 mM EDTA, 0.5 mM PMSF, 20 mg/L leupeptin, 4 mg/L E-64, 1 mg/L pepstatin A]. The membrane fractions were suspended in assay buffer to a protein concentration of 2 mg/mL, and after dispensing, preserved at −80° C. and used upon thawing each time when in use.
The MCHR1 ligand binding inhibitory activity of the test compound was determined as follows. An MCHR1-expressing CHO cellular membrane fraction (175 μL) diluted with an assay buffer was dispensed to a 96 well polypropylene plate (3363, Corning). DMSO solution (2 μL), 100 μm cold MCH(1-19) diluted with DMSO solution (2 μL), or a test compound solution diluted with DMSO solution to various concentrations (2 μL) was added, and lastly, [^125I]-MCH(4-19) diluted with assay buffer (25 μL) was added to each well. The reaction mixture was reacted at 25° C. for 1 hr with stirring, and the reaction mixture was filtered by suction using a glass filter plate (GF/C, PerkinElmer). The filter was washed 3 times with a wash solution (300 μL, 50 mM Tris-HCl buffer, pH 7.5). The glass filter plate was dried, a liquid scintillator was added at 25 μL/well, and the residual radioactivity was measured by TopCount (PerkinElmer). The binding inhibition rate of the test compound was calculated by the following formula. Binding inhibition (%)=(radioactivity upon addition of test compound and hot MCH−radioactivity upon addition of cold MCH and hot MCH solution)/(radioactivity upon addition of DMSO solution and hot MCH−radioactivity upon addition of cold MCH and hot MCH solution)×100

The target in series [2] is T1, human MCHR1. Put plainly: MCH receptor 1 antagonistic activity, Ca2+ mobilization assay in human MCHR1-expressing CHO cells. It is filed as cell-based. To be noted: test compound 0.1 μM; human MCHR1-expressing CHO cell; ligand MCH (4-19) peptide 20 nM; Fluo4 fluorescence; read-out: Inhibition rate (%). The procedure:
Measurement of MCH Receptor 1 Antagonistic Activity of Test Compound Using Ca^2+ Mobilization Assay
CHO cell (CHO dhfr^−, clone #4) expressing a recombinant human MCHR1 gene for Ca^2+ mobilization assay was prepared by us. The cell was cultured in MEMα medium [445 mL of MEMα medium without nucleic acid and added with 5 mL of Penicillin-Streptomycin (Invitrogen) and 50 mL of dialyzed fetal bovine serum]. An integrated dispensing function fluorometer (CellLux, PerkinElmer) was used for Ca^2+ mobilization assay. CHO cells were sown in a 96 well plate (type 3904, Corning) with a black plate wall and clear well bottom at a density of 20000 cells/well, and cultured in an incubator for about 24 hr at 5% CO2, 37° C. The medium was removed, and the cells were washed with phosphate buffered saline (PBS). A Ca^2+ indicator dye reagent (DOJINDO LABORATORIES, Ca screening no-wash kit Fluo4) was added at 90 μL/well, and the dye was allowed to penetrate into the cell for 30 min in an incubator at 5% CO2, 37° C. The plate was set on a plate reader, a test compound solution diluted with an assay buffer [10 mM HEPES (pH 7.4), 1× assay buffer containing 0.1% BSA (DOJINDO LABORATORIES, attached to Ca screening no-wash kit Fluo4)] or DMSO solution was added at 10 μL/well, and ligand MCH (4-19) peptide (final concentration 20 nM) diluted with assay buffer or DMSO was added at 50 μL/well, during which changes in intracellular fluorescence were measured at 2 second intervals. The antagonistic activity of the test compound was calculated and shown as an inhibition rate (%) wherein the intracellular fluorescence activity resulting from the stimulation by the addition of ligand MCH (4-19) peptide was 100% and that of the well added with DMSO solution alone was 0%.

In series [3] the test system is Dietary obese male F344/Jcl rats. Put plainly: Anorectic effect (food intake) in dietary obese male F344/Jcl rats. It is filed as in vivo. To be noted: Rattus norvegicus, 48 h; oral, 0.5% methylcellulose suspension (5 mg/mL) at 2 mL/kg, on start day and evening of next day; food intake from initial administration to 2 days later; vs control group; read-out: Food intake inhibition rate (%). An excerpt:
Evaluation of Anorectic Effect Using Dietary Obese Male F344/Jcl Rats
Dietary obese male F344/Jcl rats (42-57-week-old) reared on a high-fat diet (Research Diets: D12451) from 5 weeks of age were used. From before the start of experiment, the rats were independently raised, a powder high-fat diet (Research Diets: D12451M) was given, tap water was orally administered for acclimation, and thereby the rats were habituated. The food intake from the evening of the day before the start of experiment to the next morning was measured, and the rats were grouped based on the food intake and the body weight of the previous day as indices. On the day of the start of experiment and in the evening of the next day, 0.5% methylcellulose solution was orally administered to the control group, and 0.5% methylcellulose suspension (5 mg/mL) of the test compound was orally administered to the compound administration group at 2 mL/kg (6 per group for both control group and compound administration group). The food intake from the initial administration to 2 days later was measured. The food intake inhibition rate of each compound administration group to the control group was calculated.

T1 sequence (Q99705 whole entry): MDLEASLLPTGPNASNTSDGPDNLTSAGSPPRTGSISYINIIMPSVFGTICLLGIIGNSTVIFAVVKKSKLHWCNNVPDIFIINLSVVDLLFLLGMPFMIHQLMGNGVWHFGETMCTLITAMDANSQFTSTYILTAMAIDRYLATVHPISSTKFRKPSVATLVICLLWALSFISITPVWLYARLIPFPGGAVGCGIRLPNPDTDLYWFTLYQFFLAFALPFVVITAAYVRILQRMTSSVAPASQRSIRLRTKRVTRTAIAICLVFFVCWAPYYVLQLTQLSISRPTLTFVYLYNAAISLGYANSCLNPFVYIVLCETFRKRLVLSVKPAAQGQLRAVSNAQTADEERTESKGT

`Cc1c(NC(=O)c2ccc(OC[C@@H]3CCCO3)cc2)ccc2cc(CNCC3CCOCC3)n(C)c12` [Example 83, N-(1,7-dimethyl-2-{[(tetrahydro-2H-pyran-4-ylmethyl)amino]methyl}-1H-indol-6-yl)-4-[(2S)-tetrahydrofuran-2-ylmethoxy]benzamide]: the melting point is 197 to 198 °C. On human MCHR1 [1], the inhibition at 0.1 µM was found to be 99%. The inhibition at 0.1 µM at human MCHR1 [2] is 96%.
In turn, `Cc1c(NC(=O)c2ccc(OC[C@@H]3CCCO3)cc2)ccc2cc(CN[C@H]3CC[C@](C)(O)CC3)n(C)c12` [Example 84, N-(2-{[(trans-4-hydroxy-4-methylcyclohexyl)amino]methyl}-1,7-dimethyl-1H-indol-6-yl)-4-[(2S)-tetrahydrofuran-2-ylmethoxy]benzamide] showed a melting point of 171 to 172 °C. Besides, the inhibition at 0.1 µM on human MCHR1 [1] stood at 101%. The inhibition in vivo at 10 mg/kg in series [3] amounted to 12.1%. Moreover, the inhibition at 0.1 µM on human MCHR1 [2] turned out to be 97%.
For `Cn1c(CNC2CCS(=O)(=O)CC2)cc2cc(NC(=O)c3ccc(OCC4CC4)cc3)ccc21` [Example 6, 4-(cyclopropylmethoxy)-N-(2-{[(1,1-dioxidotetrahydro-2H-thiopyran-4-yl)amino]methyl}-1-methyl-1H-indol-5-yl)benzamide], the melting point was 200 to 201 °C. In addition, the inhibition at 0.1 µM at human MCHR1 [1] amounted to 82%.
`Cc1c(NC(=O)c2ccc(OC[C@@H]3CCCO3)cc2)ccc2c1cc(CN[C@H]1CC[C@](C)(O)CC1)n2C` [Example 53-2, N-(2-{[(trans-4-hydroxy-4-methylcyclohexyl)amino]methyl}-1,4-dimethyl-1H-indol-5-yl)-4-[(2S)-tetrahydrofuran-2-ylmethoxy]benzamide] had a melting point of 200 °C. Moreover, at human MCHR1 [1], the inhibition at 0.1 µM was 97%. Besides, the inhibition at 0.1 µM at human MCHR1 [2] is 96%.
On to `Cc1c(NC(=O)c2ccc(OC[C@@H]3CCCO3)cc2)ccc2cc(CN3CCCC3)[nH]c12` [Example 74, N-[7-methyl-2-(pyrrolidin-1-ylmethyl)-1H-indol-6-yl]-4-[(2S)-tetrahydrofuran-2-ylmethoxy]benzamide], for which the melting point was 172 to 173 °C. Besides, the inhibition at 0.1 µM on human MCHR1 [1] turned out to be 91%.
`Cc1c(CNCC(C)(C)C)[nH]c2c(F)c(NC(=O)c3ccc(OC[C@@H]4CCCO4)cc3)ccc12` [Example 103, N-(2-{[(2,2-dimethylpropyl)amino]methyl}-7-fluoro-3-methyl-1H-indol-6-yl)-4-[(2S)-tetrahydrofuran-2-ylmethoxy]benzamide] displayed a melting point of 159 to 160 °C. Besides, on human MCHR1 [1], the inhibition at 0.1 µM is 100%.
`Cn1c(CNCC2CCOC2)cc2cc(NC(=O)c3ccc(OC[C@@H]4CCCO4)cc3)ccc21` (stereo partly drawn) [Example 20, N-(1-methyl-2-{[(tetrahydrofuran-3-ylmethyl)amino]methyl}-1H-indol-5-yl)-4-[(2S)-tetrahydrofuran-2-ylmethoxy]benzamide] displayed a melting point of 128 to 129 °C. Further, the inhibition at 0.1 µM on human MCHR1 [1] is 91%. The inhibition in vivo at 10 mg/kg in series [3] turned out to be 20.3%.
Consider `Cn1c(CNCC(C)(C)C)cc2cc(NC(=O)c3ccc(OC[C@@H]4CCCO4)cc3)ccc21` [Example 15, N-(2-{[(2,2-dimethylpropyl)amino]methyl}-1-methyl-1H-indol-5-yl)-4-[(2S)-tetrahydrofuran-2-ylmethoxy]benzamide acetate], for which the inhibition at 0.1 µM on human MCHR1 [1] is 96%. For the same compound, the inhibition in vivo at 10 mg/kg in series [3] came to 12.7%.
Consider `Cc1c(NC(=O)c2ccc(OCC3CC3)cc2)ccc2cc(CNCC(C)(C)O)[nH]c12` [Example 63, 4-(cyclopropylmethoxy)-N-(2-{[(2-hydroxy-2-methylpropyl)amino]methyl}-7-methyl-1H-indol-6-yl)benzamide], for which the melting point came out at 170 °C. For the same compound, the inhibition at 0.1 µM on human MCHR1 [1] stood at 98%.
The like results for `Cc1c(NC(=O)c2ccc(OC[C@@H]3CCCO3)cc2)ccc2cc(CNCC3CCOCC3)[nH]c12` [Example 70, N-(7-methyl-2-{[(tetrahydro-2H-pyran-4-ylmethyl)amino]methyl}-1H-indol-6-yl)-4-[(2S)-tetrahydrofuran-2-ylmethoxy]benzamide] were, in that order, 161 to 162 °C and 95%.
In turn, `Cc1c(NC(=O)c2ccc(OCC3CC3)cc2)ccc2cc(CN[C@H]3CC[C@](C)(O)CC3)[nH]c12` [Example 67, 4-(cyclopropylmethoxy)-N-(2-{[(trans-4-hydroxy-4-methylcyclohexyl)amino]methyl}-7-methyl-1H-indol-6-yl)benzamide] registered a melting point of 91 to 103 °C. For the same compound, at human MCHR1 [1], the inhibition at 0.1 µM was 101%.
In turn, `Cc1c(NC(=O)c2ccc(OC[C@@H]3CCCO3)cc2)ccc2cc(CN3CCC(C)(O)CC3)[nH]c12` [Example 75, N-{2-[(4-hydroxy-4-methylpiperidin-1-yl)methyl]-7-methyl-1H-indol-6-yl}-4-[(2S)-tetrahydrofuran-2-ylmethoxy]benzamide] yielded a melting point of 169 °C. The inhibition at 0.1 µM at human MCHR1 [1] was 94%. Also, in series [3], the inhibition in vivo at 10 mg/kg worked out at 17.1%.
As for `Cc1c(NC(=O)c2ccc(OCC3CC3)cc2)ccc2cc(CNCC(C)(C)O)n(C)c12` [Example 78, 4-(cyclopropylmethoxy)-N-(2-{[(2-hydroxy-2-methylpropyl)amino]methyl}-1,7-dimethyl-1H-indol-6-yl)benzamide], the melting point was 180 °C. Further, the inhibition at 0.1 µM at human MCHR1 [1] is 91%.
As for `Cn1c(CN[C@H]2CC[C@](C)(O)CC2)cc2cc(NC(=O)c3ccc(OCC4CC4)cc3)ccc21` [Example 12, 4-(cyclopropylmethoxy)-N-(2-{[(trans-4-hydroxy-4-methylcyclohexyl)amino]methyl}-1-methyl-1H-indol-5-yl)benzamide], the inhibition at 0.1 µM on human MCHR1 [1] is 98%.
The compound `Cc1c(NC(=O)c2ccc(OC[C@@H]3CCCO3)cc2)ccc2c1cc(CNCC(C)(C)C)n2C` [Example 51, N-(2-{[(2,2-dimethylpropyl)amino]methyl}-1,4-dimethyl-1H-indol-5-yl)-4-[(2S)-tetrahydrofuran-2-ylmethoxy]benzamide] showed a melting point of 179 °C. The inhibition at 0.1 µM at human MCHR1 [1] is 92%.

The inhibition is the drop in the measured response relative to a control, in per cent. Usually melting point stands for the temperature of the solid-liquid transition.
